The values below come from patent US4228288A, “Certain substituted 3,4,5,6-tetrahydropyridinium salt intermediates” (Eli Lilly and Company, priority 1979, dated 1980).

Assay [1] in a line: standard mouse writhing assay (inhibition of induced writhing). The class given is in vivo. An excerpt:
(§1) The analgesic activity of a number of compounds provided by this invention has been determined in the standard rat-tail jerk assay and the mouse writhing assay. The results in the mouse writhing assay are presented as the effective dose in mg./kg. of the tested compound required to inhibit induced writhing in the test animals by fifty percent (ED50). Results are presented in Column II for both subcutaneous (S.C.) and oral (p.o.) administration of the test compound recited in Column I.

Assay [2] can be described thus: standard rat-tail jerk assay (delay of response to heat stimulus). The class given is in vivo. The note with it: subcutaneous, heat sensation.
Text: as §1
Column III presents the effects of the claimed compounds on rats subjected to a heat sensation. The compounds recited in column I were administered subcutaneously to the test animals. The test results are reported as the minimum effective dose (MED) of compound in mg./kg. needed to delay response to the pain stimulus by one second compared to control animals.

The mark [3] stands for this setting: oral, read-out: Mouse Writhing ED50 p.o. (dose required to inhibit induced writhing by fifty percent).
The mark [4] stands for this setting: sc, subcutaneous, read-out: Mouse Writhing ED50 s.c. (dose required to inhibit induced writhing by fifty percent).

Read-outs that look alike come from different tables or passages of the source.

In general, ED50 refers to the dose at which the effect has come halfway, by size or by number of responders. For `CC1CC(C)(c2cccc(O)c2)C(C)CN1C` (stereo not drawn) [1,2,4,5-Tetramethyl-4-(3-hydroxyphenyl)piperidine], the figures for the median effective dose (ED50) in assay [1] (setting [3]) and in assay [1] (setting [4]) were 9.2 mg/kg and 1.25 mg/kg, respectively. Further, in assay [2], the “Rat Tail Jerk MED 1 sec. (minimum effective dose to delay response to the pain stimulus by one second compared to control animals)” value was 1 mg/kg.
In the same order, the values of `CCOC(=O)C1(c2ccccc2)CCN(C)CC1` [Meperidine, meperidine, reference compound] are 21 mg/kg, 2.8 mg/kg and 3.0 mg/kg.
On to `CCCC1(c2cccc(OC)c2)CC(C)N(C)CC1C` (stereo not drawn) [1,2,5-Trimethyl-4-n-propyl-4-(3-methoxyphenyl)-piperidine], for which the ED50 in assay [1] (setting [3]) was 11.5 mg/kg; in assay [1] (setting [4]) it was 4 mg/kg. Moreover, the “Rat Tail Jerk MED 1 sec. (minimum effective dose to delay response to the pain stimulus by one second compared to control animals)” value in assay [2] was found to be 2 mg/kg.
`COc1cccc(C2(C)CC(C)N(C)CC2C)c1` (stereo not drawn) [1,2,4,5-Tetramethyl-4-(3-methoxyphenyl)piperidine]: the ED50 in assay [1] (setting [3]) worked out at 16 mg/kg; in assay [1] (setting [4]), 19 mg/kg. Besides, in assay [2], the “Rat Tail Jerk MED 1 sec. (minimum effective dose to delay response to the pain stimulus by one second compared to control animals)” value was determined as 10 mg/kg.
Turning to `CCCC1(c2cccc(O)c2)CC(C)N(C)CC1C` (stereo not drawn) [1,2,5-trimethyl-4-n-propyl-4-(3-hydroxyphenyl)piperidine], the results for the ED50 in assay [1] (setting [3]) and in assay [1] (setting [4]) were 16 mg/kg and 29 mg/kg, respectively. The “Rat Tail Jerk MED 1 sec. (minimum effective dose to delay response to the pain stimulus by one second compared to control animals)” value in assay [2] came out at 20 mg/kg.
